According to the supplement of paper PMC10307832:

How the values were obtained:
Assay in all cases: relative viability (nuclei count vs DMSO), 5 days (fraction); higher = more cells survive
[1] = compound: NCC(=O)Nc1ccc(-n2nc(C(F)(F)F)cc2-c2ccc3c(ccc4ccccc43)c2)cc1 + CC(=O)c1c(C)c2cnc(Nc3ccc(N4CCNCC4)cn3)nc2n(C2CCCC2)c1=O [Palbociclib] (partner 0.5 µM)
How it was run: (§1)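 Each reported value is a median over duplicate plates. It expresses relative viability: treated-well nuclei count divided by vehicle-well nuclei count. Lung cancer cell lines in 1536-well plates were dosed by pin tool a day after seeding, alone with one drug or with a fixed anchor-drug dose plus five library-drug doses (not always all listed) in √10 steps, and nuclei were counted after 5 days.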

[2] = compound: NCC(=O)Nc1ccc(-n2nc(C(F)(F)F)cc2-c2ccc3c(ccc4ccccc43)c2)cc1 + O=C(CCCCCCC(=O)Nc1ccccc1)NO [Vorinostat] (partner 1 µM)
How it was run: as §1

[3] = compound: NCC(=O)Nc1ccc(-n2nc(C(F)(F)F)cc2-c2ccc3c(ccc4ccccc43)c2)cc1 + CS(=O)(=O)N1CCN(Cc2cc3nc(-c4cccc5[nH]ncc45)nc(N4CCOCC4)c3s2)CC1 [Pictilisib] (partner 1 µM)
How it was run: as §1

[4] = compound: NCC(=O)Nc1ccc(-n2nc(C(F)(F)F)cc2-c2ccc3c(ccc4ccccc43)c2)cc1 + Cc1cc(Nc2cc(N3CCN(C)CC3)nc(Sc3ccc(NC(=O)C4CC4)cc3)n2)n[nH]1 [Tozasertib] (partner 0.1 µM)
How it was run: as §1

Cell Line | relative viability ([1]; first compound 0.02 µM) | relative viability ([1]; first compound 0.06325 µM) | relative viability ([1]; first compound 0.2 µM) | relative viability ([1]; first compound 0.6325 µM) | relative viability ([1]; first compound 2 µM) | relative viability ([2]; first compound 0.02 µM) | relative viability ([2]; first compound 0.06325 µM) | relative viability ([2]; first compound 0.2 µM) | relative viability ([2]; first compound 0.6325 µM) | relative viability ([2]; first compound 2 µM) | relative viability ([3]; first compound 0.02 µM) | relative viability ([3]; first compound 0.06325 µM) | relative viability ([3]; first compound 0.2 µM) | relative viability ([3]; first compound 0.6325 µM) | relative viability ([3]; first compound 2 µM) | relative viability ([4]; first compound 0.02 µM) | relative viability ([4]; first compound 0.06325 µM) | relative viability ([4]; first compound 0.2 µM) | relative viability ([4]; first compound 0.6325 µM) | relative viability ([4]; first compound 2 µM)
201T | 0.342 | 0.374 | 0.366 | 0.363 | 0.351 | 0.926 | 0.968 | 0.957 | 0.974 | 0.935 | 0.664 | 0.655 | 0.68 | 0.734 | 0.687 | 0.943 | 0.958 | 1.04 | 0.924 | 0.928
A549 | – | – | – | – | – | – | – | – | – | – | 0.459 | 0.495 | 0.564 | 0.565 | 0.517 | – | – | – | – | –
A-427 | 0.502 | 0.567 | 0.527 | 0.526 | 0.534 | 0.864 | 0.825 | 0.908 | 0.839 | 0.982 | 0.595 | 0.726 | 0.744 | 0.739 | 0.815 | – | 0.213 | 0.191 | 0.208 | 0.205
ABC-1 | 0.725 | 0.592 | – | 0.807 | 0.658 | 0.917 | 1.15 | – | 1.08 | 1.39 | 0.808 | 0.81 | – | 0.745 | 0.563 | 0.183 | 0.199 | – | 0.134 | 0.187
BEN | 0.441 | 0.475 | 0.473 | 0.49 | 0.465 | 0.579 | 0.526 | 0.56 | 0.593 | 0.586 | 0.54 | 0.581 | 0.55 | 0.547 | 0.576 | 0.422 | 0.499 | 0.461 | 0.464 | 0.572
CAL-12T | 0.527 | 0.481 | 0.462 | 0.588 | 0.423 | 0.692 | 0.822 | 1.04 | 0.684 | 0.916 | 0.392 | 0.617 | 0.481 | 0.404 | 0.475 | 0.304 | 0.368 | 0.344 | 0.334 | 0.277
COR-L23 | 0.297 | 0.293 | 0.346 | 0.261 | 0.245 | 0.466 | 0.46 | 0.576 | 0.449 | 0.372 | 0.712 | 0.767 | 0.95 | 0.798 | 0.613 | 0.208 | 0.213 | 0.195 | 0.21 | 0.136
COR-L 105 | 0.4 | 0.399 | 0.411 | 0.413 | 0.432 | 0.873 | 0.861 | 0.724 | 0.781 | 1.04 | 0.426 | 0.357 | 0.423 | 0.363 | 0.391 | 0.361 | 0.313 | 0.303 | 0.295 | 0.336
Calu-6 | – | – | – | – | – | – | – | – | – | – | 0.849 | 0.891 | 0.975 | 0.949 | 0.93 | – | – | – | – | –
ChaGo-K-1 | 0.919 | 0.929 | 0.933 | 0.973 | 0.917 | 0.667 | 0.794 | 0.725 | 0.725 | 0.76 | 0.617 | 0.784 | 0.394 | 0.676 | 1.04 | 0.21 | 0.223 | 0.241 | 0.251 | 0.231
EBC-1 | – | – | – | – | – | – | – | – | – | – | 0.324 | 0.37 | 0.434 | 0.36 | 0.404 | – | – | – | – | –
EKVX | 0.436 | 0.417 | 0.397 | 0.348 | 0.382 | 0.726 | 0.83 | 0.751 | 0.724 | 0.731 | 0.531 | 0.493 | 0.466 | 0.45 | 0.531 | 0.443 | 0.374 | 0.431 | 0.39 | 0.386
EMC-BAC-2 | 0.514 | 0.513 | 0.537 | 0.518 | 0.532 | 0.454 | 0.511 | 0.569 | 0.514 | 0.488 | 0.509 | 0.558 | 0.558 | 0.545 | 0.506 | 0.29 | 0.314 | 0.325 | 0.308 | 0.302
EPLC-272H | 0.332 | 0.306 | 0.36 | 0.335 | 0.326 | 0.354 | 0.538 | 0.491 | 0.573 | 0.501 | 0.28 | 0.378 | 0.285 | 0.344 | 0.319 | 0.299 | 0.225 | 0.365 | 0.313 | 0.234
H3255 | 0.35 | 0.313 | 0.314 | 0.322 | 0.304 | 0.766 | 0.84 | 0.872 | 0.809 | 0.722 | 0.553 | 0.527 | 0.493 | 0.467 | 0.513 | 0.657 | 0.511 | 0.749 | 0.686 | 0.713
HARA | 0.258 | 0.173 | 0.287 | 0.294 | 0.256 | 0.552 | 0.518 | 0.596 | 0.578 | 0.551 | 0.418 | 0.355 | 0.486 | 0.568 | 0.559 | 0.0731 | 0.108 | 0.12 | 0.0964 | 0.0949
HCC-15 | 0.714 | 0.732 | 0.763 | 0.742 | 0.749 | 0.878 | 0.94 | 1.04 | 0.861 | 0.841 | 0.705 | 0.773 | 0.8 | 0.747 | 0.743 | 0.379 | 0.416 | 0.39 | 0.489 | 0.347
HCC-44 | 1.04 | 0.961 | 0.994 | 0.977 | 0.962 | 1.17 | 1.19 | 1.03 | 1.05 | 1.12 | 0.5 | 0.638 | 0.633 | 0.684 | 0.659 | 1.03 | 1.26 | 0.879 | 0.803 | 0.829
